NS(=O)(=O)c1ccc(C#Cc2cnn3c(C(F)F)cc(-c4ccc(C(F)(F)F)cc4)nc23)cc1 [Example 49, 4-[7-Difluoromethyl-5-(4-trifluoromethyl-phenyl)-pyrazolo[1,5-a]pyrimidin-3-ylethynyl]-benzenesulfonamide]
melting point: 254 °C

NS(=O)(=O)c1ccc(C#Cc2cnn3c(C(F)F)cc(-c4ccc(C(F)(F)F)cc4)nc23)s1 [Example 164, 5-[7-Difluoromethyl-5-(4-trifluoromethyl-phenyl)-pyrazolo[1,5-a]pyrimidin-3-ylethynyl]-thiophene-2-sulfonic acid amide]
melting point: 210 °C

O=S(=O)(NC(CO)CO)c1ccc(C#Cc2cnn3c(C(F)F)cc(-c4cccc(C(F)(F)F)c4)nc23)s1 [Example 265, 5-[7-Difluoromethyl-5-(3-trifluoromethyl-phenyl)-pyrazolo[1,5-a]pyrimidin-3-ylethynyl]-thiophene-2-sulfonic acid (2-hydroxy-1-hydroxymethyl-ethyl)-amide]
melting point: 153 °C

NS(=O)(=O)c1ccc(C#Cc2cnc3c(C(F)(F)F)cc(-c4ccc(C(F)(F)F)cc4)cn23)s1 [Example 193, 5-[8-Trifluoromethyl-6-(4-trifluoromethyl-phenyl)-imidazo[1,2-a]pyridin-3-ylethynyl]-thiophene-2-sulfonic acid amide]
melting point: 248 to 250 °C

NS(=O)(=O)c1cc(C#Cc2cnn3c(C(F)(F)F)cc(-c4cccc(C(F)(F)F)c4)nc23)c(F)cc1F [Example 116, 2,4-Difluoro-5-[7-trifluoromethyl-5-(3-trifluoromethyl-phenyl)-pyrazolo[1,5-a]pyrimidin-3-ylethynyl]-benzenesulfonamide]
melting point: 264 °C

CNC(=O)c1ccc(C#Cc2cnn3c(C4CC4)cc(-c4ccc(Cl)cc4)nc23)cc1 [Example 306, 4-[5-(4-Chloro-phenyl)-7-cyclopropyl-pyrazolo[1,5-a]pyrimidin-3-ylethynyl]-N-methyl-benzamide]
melting point: 214 to 216 °C

FC(F)(F)c1ccc(-c2cc(C(F)(F)F)n3cnc(C#Cc4cccnc4)c3n2)cc1 [Example 268, 8-Pyridin-3-ylethynyl-4-trifluoromethyl-2-(4-trifluoromethyl-phenyl)-imidazo[1,5-a]pyrimidine]
melting point: 199 °C

CC(C)(CO)NS(=O)(=O)c1ccc(C#Cc2cnn3c(C(F)(F)F)cc(-c4ccc(C(F)(F)F)cc4)nc23)s1 [Example 120, 5-[7-Trifluoromethyl-5-(4-trifluoromethyl-phenyl)-pyrazolo[1,5-a]pyrimidin-3-ylethynyl]-thiophene-2-sulfonic acid (2-hydroxy-1,1-dimethyl-ethyl)-amide]
melting point: 272 °C

CNS(=O)(=O)c1cccc(C#Cc2cnn3c(C(F)F)cc(-c4ccc(C(F)(F)F)cc4)nc23)c1 [Example 145, 3-[7-Difluoromethyl-5-(4-trifluoromethyl-phenyl)-pyrazolo[1,5-a]pyrimidin-3-ylethynyl]-N-methyl-benzenesulfonamide]
melting point: 192 to 194 °C

NS(=O)(=O)c1cncc(C#Cc2cnn3c(C(F)F)cc(-c4ccc(C(F)(F)F)cc4)nc23)c1 [Example 30, 5-[7-Difluoromethyl-5-(4-trifluoromethyl-phenyl)-pyrazolo[1,5-a]pyrimidin-3-ylethynyl]-pyridine-3-sulfonic acid amide]
melting point: 238 °C

CC(C)(CO)NS(=O)(=O)c1cnc(C#Cc2cnn3c(C(F)(F)F)cc(-c4ccc(C(F)(F)F)cc4)nc23)s1 [Example 23, 2-[7-Trifluoromethyl-5-(4-trifluoromethyl-phenyl)-pyrazolo[1,5-a]pyrimidin-3-ylethynyl]-thiazole-5-sulfonic acid (2-hydroxy-1,1-dimethyl-ethyl)-amide]
melting point: 252 to 253 °C

OCCNc1ccc(C#Cc2cnn3c(C(F)(F)F)cc(-c4ccc(C(F)(F)F)cc4)nc23)cn1 [Example 200, 2-{5-[7-Trifluoromethyl-5-(4-trifluoromethyl-phenyl)-pyrazolo[1,5-a]pyrimidin-3-ylethynyl]-pyridin-2-ylamino}-ethanol]
melting point: 202 to 203 °C

NS(=O)(=O)c1cccc(C#Cc2cnn3c(C(F)F)cc(-c4cccc(C(F)(F)F)c4)nc23)c1 [Example 167, 3-[7-Difluoromethyl-5-(3-trifluoromethyl-phenyl)-pyrazolo[1,5-a]pyrimidin-3-ylethynyl]-benzenesulfonamide]
melting point: 199 °C

O=S(=O)(NC(CO)CO)c1ccc(C#Cc2cnn3c(C(F)(F)F)cc(-c4ccc(C(F)(F)F)cc4)nc23)s1 [Example 163, 5-[7-Trifluoromethyl-5-(4-trifluoromethyl-phenyl)-pyrazolo[1,5-a]pyrimidin-3-ylethynyl]-thiophene-2-sulfonic acid (2-hydroxy-1-hydroxymethyl-ethyl)-amide]
melting point: 247 °C

O=S(=O)(c1ccc(C#Cc2cnn3c(C(F)F)cc(-c4ccc(C(F)(F)F)cc4)nc23)s1)N(CCO)CCO [Example 269, 5-[7-Difluoromethyl-5-(4-trifluoromethyl-phenyl)-pyrazolo[1,5-a]pyrimidin-3-ylethynyl]-thiophene-2-sulfonic acid bis-(2-hydroxy-ethyl)-amide]
melting point: 122 °C

NS(=O)(=O)c1cnc(C#Cc2cnn3c(C(F)(F)F)cc(-c4ccc(C(F)(F)F)cc4)nc23)s1 [Example 29, 2-[7-Trifluoromethyl-5-(4-trifluoromethyl-phenyl)-pyrazolo[1,5-a]pyrimidin-3-ylethynyl]-thiazole-5-sulfonic acid amide]
melting point: 235 °C

Cc1cc(-c2ccc(C(F)(F)F)cc2)cn2c(C#Cc3ccc(N)nc3)cnc12 [Example 209, 5-[8-Methyl-6-(4-trifluoromethyl-phenyl)-imidazo[1,2-a]pyridin-3-ylethynyl]-pyridin-2-ylamine]
melting point: 239 to 240 °C

CC(=O)Nc1ncc(C#Cc2cnn3c(C(F)(F)F)cc(-c4ccc(C(F)(F)F)cc4)nc23)cn1 [Example 245, N-{5-[7-Trifluoromethyl-5-(4-trifluoromethyl-phenyl)-pyrazolo[1,5-a]pyrimidin-3-ylethynyl]-pyrimidin-2-yl}-acetamide]
melting point: 293 °C

Nc1ccc(C#Cc2cnn3c(C(F)(F)F)cc(-c4ccc(C(F)(F)F)cc4)cc23)cn1 [Example 235, 5-[7-Trifluoromethyl-5-(4-trifluoromethyl-phenyl)-pyrazolo[1,5-a]pyridin-3-ylethynyl]-pyridin-2-ylamine]
melting point: 243 to 245 °C

Nc1ccc(C#Cc2cnc3ccc(-c4ccc(C(F)(F)F)cc4)cn23)cn1 [Example 237, 5-[6-(4-Trifluoromethyl-phenyl)-imidazo[1,2-a]pyridin-3-ylethynyl]-pyridin-2-ylamine]
melting point: 241 to 244 °C

NS(=O)(=O)c1ccc(C#Cc2cnn3c(CO)cc(-c4ccc(Cl)cc4)nc23)cc1 [Example 155, 4-[5-(4-Chloro-phenyl)-7-hydroxymethyl-pyrazolo[1,5-a]pyrimidin-3-ylethynyl]-benzenesulfonamide]
melting point: 238 to 240 °C

Cc1cc(-c2cc(C(F)F)n3ncc(C#Cc4ccc(S(N)(=O)=O)s4)c3n2)ccc1Cl [Example 172, 5-[5-(4-Chloro-3-methyl-phenyl)-7-difluoromethyl-pyrazolo[1,5-a]pyrimidin-3-ylethynyl]-thiophene-2-sulfonic acid amide]
melting point: 216 °C

NS(=O)(=O)c1cncc(C#Cc2cnn3c(C4CC4)cc(-c4ccc(Cl)cc4)nc23)c1 [Example 66, 5-[5-(4-Chloro-phenyl)-7-cyclopropyl-pyrazolo[1,5-a]pyrimidin-3-ylethynyl]-pyridine-3-sulfonic acid amide]
melting point: 252 to 254 °C

Cc1cc(-c2ccc(Cl)cc2)nc2c(C#Cc3ccc(C(C)(C)O)cc3)cnn12 [Example 301, 2-{4-[5-(4-Chloro-phenyl)-7-methyl-pyrazolo[1,5-a]pyrimidin-3-ylethynyl]-phenyl}-propan-2-ol]
melting point: 112 to 115 °C

Cc1cc(-c2ccc(Cl)cc2)cn2c(C#Cc3ccc(N)nc3)cnc12 [Example 210, 5-[6-(4-Chloro-phenyl)-8-methyl-imidazo[1,2-a]pyridin-3-ylethynyl]-pyridin-2-ylamine]
melting point: 231 to 234 °C

Nc1ncc(C#Cc2cnc3c(C(F)(F)F)cc(-c4ccc(C(F)(F)F)cc4)nn23)cn1 [Example 243, 5-[8-Trifluoromethyl-6-(4-trifluoromethyl-phenyl)-imidazo[1,2-b]pyridazin-3-ylethynyl]-pyrimidin-2-ylamine]
melting point: 220 to 221 °C

NS(=O)(=O)c1ccc(C#Cc2cnn3c(C(F)F)cc(-c4cccc(C(F)(F)F)c4)nc23)cc1 [Example 176, 4-[7-Difluoromethyl-5-(3-trifluoromethyl-phenyl)-pyrazolo[1,5-a]pyrimidin-3-ylethynyl]-benzenesulfonamide]
melting point: 245 °C

Nc1ncc(C#Cc2cnn3c(C(F)(F)F)cc(-c4ccc(Cl)cc4)nc23)cc1C(F)(F)F [Example 223, 5-[5-(4-Chloro-phenyl)-7-trifluoromethyl-pyrazolo[1,5-a]pyrimidin-3-ylethynyl]-3-trifluoromethyl-pyridin-2-ylamine]
melting point: 209 °C

O=S(=O)(c1cncc(C#Cc2cnn3c(C(F)(F)F)cc(-c4ccc(C(F)(F)F)cc4)nc23)c1)N(CCO)CCO [Example 13, 5-[7-Trifluoromethyl-5-(4-trifluoromethyl-phenyl)-pyrazolo[1,5-a]pyrimidin-3-ylethynyl]-pyridine-3-sulfonic acid bis-(2-hydroxy-ethyl)-amide]
melting point: 173 to 178 °C

O=S(=O)(NCc1cccnc1)c1ccc(C#Cc2cnn3c(C(F)(F)F)cc(-c4ccc(C(F)(F)F)cc4)nc23)s1 [Example 273, 5-[7-Trifluoromethyl-5-(4-trifluoromethyl-phenyl)-pyrazolo[1,5-a]pyrimidin-3-ylethynyl]-thiophene-2-sulfonic acid (pyridin-3-ylmethyl)-amide]
melting point: 177 °C

CN(C)CCNS(=O)(=O)c1cccc(C#Cc2cnn3c(C(F)F)cc(-c4ccc(C(F)(F)F)cc4)nc23)c1 [Example 148, 3-[7-Difluoromethyl-5-(4-trifluoromethyl-phenyl)-pyrazolo[1,5-a]pyrimidin-3-ylethynyl]-N-(2-dimethylamino-ethyl)-benzenesulfonamide]
melting point: 160 to 162 °C
